Data: patent publication US7018615B2, “Method of identifying molecules that home to a selected organ in vivo” (The Burnham Institute, priority 1995, dated 2006)
Bridge positions count the residues as written; N and C are the ends. Ends that are not written are not given here.

Columns and labels:
kidney = experiment: Homing of individual phage to kidney compared with brain; assay type: in vivo, mice; settings: phage expressing the peptide
Experimental: The same methodology used to isolate phage expressing brain homing peptides was used to isolate phage expressing peptides that home to kidney. In these experiments, brain was used as the control organ. A mixture of the CX5C (SEQ ID NO: 36) and the CX6C (SEQ ID NO: 37) libraries was administered as described above. Homing of phage to the kidney was obtained and an approximately 3× to 7× enrichment of phage homing to kidney was observed following a second round of in vivo panning.
The amino acid sequences were determined for the inserts in 48 cloned phage that homed to kidney. The peptides expressed by these phage were represented by two predominant sequences, CLPVASC (SEQ ID NO: 21; 46% of the clones sequenced) and CGAREMC (SEQ ID NO: 22; 17% of the clones; see Table 2). In addition, the peptide CKGRSSAC (SEQ ID NO: 23) appeared three times and three other peptides were present twice each.

brain [1] = experiment: Homing of individually amplified phage to brain compared with kidney (TU recovered); assay type: in vivo, mice; settings: phage displaying the peptide, same input titer, TU recovered from each organ
Experimental: To determine the specificity of brain homing of the individual motifs identified, phage displaying the predominant motifs were amplified individually, diluted to the same input titer and administered to mice. Following administration, brain and kidney were removed and the number of TU of phage in each organ was determined. […] Specifically, the ratio of selective homing (brain:kidney) was about 8 for CNSRLHLRC (SEQ ID NO: 1) and for CLSSRLDAC (SEQ ID NO: 3), 4 for CENWWGDVC (SEQ ID NO: 2) and 9 for […] (SEQ ID NO: 16).

brain [2] = experiment: Peptide competition: synthetic cyclic peptide co-injected with brain homing phage; assay type: in vivo, mice; settings: 100 μg synthetic cyclic peptide co-injected with 1×10^8 TU phage
Experimental: In order to confirm the specificity of a peptide for directing homing to a selected organ, peptide competition experiments were performed. The cyclic peptide, CLSSRLDAC (SEQ ID NO: 3), which is one of the brain homing peptides (see Table 1) was synthesized (Immunodynamics; La Jolla Calif.) and purified by HPLC. The effect on the homing of phage expressing CLSSRLDAC (SEQ ID NO: 3), CENWWGDVC (SEQ ID NO: 2) or […] (SEQ ID NO: 16) to the brain was examined in order to determine whether co-administration of the synthetic peptide affected homing of the phage.
Phage expressing CLSSRLDAC (SEQ ID NO: 3), CENWWGDVC (SEQ ID NO: 2) or […] (SEQ ID NO: 16) were titrated to the same concentration and 1×10^8 TU was injected into mice alone, or with 100 μg purified synthetic cyclic CLSSRLDAC (SEQ ID NO: 3) peptide. The synthetic CLSSRLDAC (SEQ ID NO: 3) peptide inhibited the homing of phage expressing CLSSRLDAC (SEQ ID NO: 3) by about 60%.

brain [3] = experiment: Homing of 125I-peptide/RBC complex to brain and kidney, alone or with unlabeled peptide; assay type: in vivo, mouse; settings: for effect of coadministered unlabeled peptide on brain homing of the CLSSRLDAC/RBC complex / effect of coadministered unlabeled peptide on localization of the CLSSRLDAC/RBC complex in the kidney: 10 mM unlabeled peptide coadministered
Experimental: The synthetic cyclic CLSSRLDAC (SEQ ID NO: 3) peptide (1 mg) was labeled with iodine-125 using the Bolton and Hunter reagent (Amersham; Arlington Heights Ill.). Labeled peptide was purified by reverse phase HPLC on Sep-Pak™ cartridges (Waters, Millipore Corp.; Milford Pa.) and the ^125I-peptide (200 μg) was coupled to 1 ml glutaraldehyde-stabilized sheep RBC (Sigma Chemical Co.; St. Louis Mo.) according to the manufacturer's instructions.
After 2 min, each mouse was perfused through the heart with 50 ml DMEM and the brain and kidney were removed and assayed for radioactivity.
Approximately twice as much of the CLSSRLDAC/RBC complex (SEQ ID NO: 3) homed to brain than to kidney. […] Coadministration of unlabeled CVRLNSLAC (SEQ ID NO: 43) had no effect on selective homing of the complex to brain and no effect on the non-specific localization of the complex in the kidney.

Substance | ratio of selective kidney:brain homing (kidney) | ratio of selective homing (brain:kidney) (brain [1]) | also measured
CLPVASC (displayed on phage) | 7 |  | 
CNSRLHLRC (displayed on phage) |  | about 8 | 
WRCVLREGPAGGCAWFNRHRL (displayed on phage) |  | ~9 | 
CLSSRLDAC (disulfide 1-9 (inferred)) [also synthesized as cyclic peptide] |  | about 8 | effect on homing to brain of CENWWGDVC phage (brain [2]): did not affect; inhibition of homing to brain of phage expressing CLSSRLDAC (brain [2]): about 60%; effect of coadministered unlabeled peptide on brain homing of the CLSSRLDAC/RBC complex (brain [3]): essentially completely inhibited; effect of coadministered unlabeled peptide on localization of the CLSSRLDAC/RBC complex in the kidney (brain [3]): had no effect
CKGRSSAC (displayed on phage) | 2 |  | 
CENWWGDVC (displayed on phage) |  | ~4 | 
CGAREMC (displayed on phage) | 3 |  | 
CVRLNSLAC |  |  | effect of coadministered unlabeled peptide on brain homing of the CLSSRLDAC/RBC complex (brain [3]): had no effect; effect of coadministered unlabeled peptide on localization of the CLSSRLDAC/RBC complex in the kidney (brain [3]): no effect; brain homing activity (brain [3]; stated for the control peptide): no brain homing activity
